PMC4366505, “Triggering HIV polyprotein processing by light using rapid photodegradation of a tight-binding protease inhibitor” (Nature Communications, 2015)
Read-outs that look alike come from different tables or passages of the source.

Tests used:
[1] = molecular target: T1, purified recombinant HIV-1 PR (Human immunodeficiency virus type 1 group M subtype B, UniProt P04585); assay: Inhibition of HIV-1 PR, spectrophotometric assay with chromogenic substrate (Morrison equation); type: biochemical
T1 construct: This 99 amino acid long homodimeric aspartic PR; made in house; host or cells: Escherichia coli BL21(DE3) RIL
Method: Ki values were determined by spectrophotometric assay using purified recombinant HIV-1 PR and the chromogenic substrate KARVNleNphEaNle-NH2. Data were analyzed using the Morrison equation[35].

[2] = molecular target: T1, purified recombinant HIV-1 PR; assay: Reactivation of inhibited HIV-1 PR by photolysis at 405 nm, cuvette set up; type: biochemical; conditions: 8 nM PR
Method: (§1) To evaluate the efficacy of photodegradation, we analyzed the restoration of HIV-1 PR activity that had been inhibited by compound 1 (Fig. 3a) on irradiation at 405 nm. For irradiation, two lasers with outputs of 130 mW and 170 mW, respectively, were used in parallel. First, we tested a standard cuvette set up, in which 8 nM purified recombinant HIV-1 PR (final concentration of compound 1: 10 or 100 nM; Fig. 3b) in 1 ml cleavage buffer was irradiated. At the lower concentration, irradiation led to a significant restoration of enzyme activity (65% compared with the uninhibited enzyme reaction). […]
(§2) Figure 3 Kinetic analysis of HIV-1 PR reactivation by inhibitor photodegradation. […] The activity of purified recombinant HIV-1 PR was determined in vitro as described in the experimental section in the presence of the indicated inhibitor concentrations. […] The PR activity was then measured using a chromogenic substrate. […] Relative PR activity was determined as in b after 20-fold dilution into cleavage buffer using the same chromogenic substrate (for details, see Experimental section) and plotted against the flow rate of the sample through the capillary. […]
Cuvette set up. […] The enzyme activity (and thus the efficacy of photodegradation) was followed by the decrease in absorbance at 305 nm.

[3] = molecular target: T1, purified recombinant HIV-1 PR; assay: Reactivation of inhibited HIV-1 PR by photolysis at 405 nm, capillary set up; type: biochemical
Method: as §1, with “reaction). At the higher concentration of compound 1, however, PR reactivation was limited even after prolonged irradiation (only 35% activity after 5 min of irradiation).” for “reaction).”
as §2

[4] = test system: HIV-1 Gag polyprotein processing; assay: Inhibition of HIV-1 Gag polyprotein processing in particles from transfected HEK293T cells (immunoblot); type: cell-based; conditions: Human immunodeficiency virus 1, HEK-293T; particles from HEK293T cells transfected with HIV-1 proviral plasmid; read-out: concentration giving ~50% reduction in Gag cleavage
Method: PR-mediated cleavage of the Gag polyprotein yields the mature structural proteins and two small spacer peptides (Fig. 4a), and different rates of cleavage at individual sites result in the generation of characteristic processing intermediates. First, we assessed the inhibitory potency of compound 1 on HIV-1 Gag polyprotein processing in virus producing cells. For this, particles were purified from the supernatant of HEK293T cells transfected with an HIV-1 proviral plasmid and incubated in the presence of various concentrations of compound 1.
Figure 4 Inhibition of HIV-1 Gag processing by compound 1. (a) Schematic representation of the 55 kDa HIV-1 Gag polyprotein and its cleavage products. (b) Inhibition of HIV-1 Gag processing by compound 1. HIV-1 particles were produced in HEK293T cells in the presence of the indicated inhibitor concentrations. […]
Samples were separated by SDS–PAGE (17.5%; acrylamide:bisacrylamide 200:1), and proteins were transferred to a nitrocellulose membrane by semi-dry blotting. HIV-1 Gag-derived proteins were detected using rabbit polyclonal antiserum raised against HIV-1 CA, followed by fluorescently labelled goat-anti rabbit secondary antibody (LiCor). Quantification of anti-CA reactive bands was performed using an infrared imaging system (LiCor Odyssey) and Image Studio Lite software. Data were analyzed with GraphPad prism.

[5] = test system: HIV-1 PR inside immature HIV-1 particles; assay: Photoinduced Gag processing in immature HIV-1 particles produced with inhibitor (capillary irradiation, quantitative immunoblot); type: cell-based
Method: Having established conditions for the inhibition of HIV-1 polyprotein processing by compound 1, we proceeded to prepare immature particles for in situ activation of PR. For this, virus particles were produced in transfected HEK293T cells grown in the presence of 2 μM inhibitor. The experimental set up is schematically illustrated in Fig. 5a. Particles collected from inhibitor-treated cells were either subjected to inhibitor wash-out by two subsequent ultracentrifugation steps (Fig. 5b), or only filtered to remove cell debris (Fig. 5c). In both cases, samples were then either irradiated (405 nm) in a glass capillary (Fig. 5b,c, bottom panels) or passed through the capillary in the absence of irradiation (Fig. 5b,c, top panels).
Figure 5 Photoinduced Gag processing in the context of the assembled virion. (a) Schematic illustration of the irradiation experiment to trigger HIV-1 maturation using photoinactivation of compound 1. HEK293T cells were transfected with a proviral HIV-1 plasmid and particles were produced in the presence of 2 μM compound 1. At 44 h post transfection, tissue culture supernatant was harvested and either subjected to ultracentrifugation (b,d) or used directly (c,e). In both cases, samples were then pumped through the capillary set up shown in Supplementary Fig. 4 either with or without ultraviolet irradiation. Subsequently, samples were incubated for various lengths of time. (b,c) Immunoblot analysis of Gag processing products. Samples were separated by SDS–PAGE, and products of Gag processing were detected by quantitative immunoblot (LiCor) using antiserum raised against recombinant HIV-1 CA. The figures show samples incubated for the indicated times without prior irradiation or following irradiation, respectively. Positions of Gag-derived proteins are indicated. (d,e) Quantitative analysis of the experiments shown in b or c, respectively. Anti-CA reactive bands from the immunoblots shown and from corresponding blots from irradiated mature control virus produced in the absence of inhibitor (not shown here) were quantified using Image Studio Light. The graphs show the proportion of mature CA relative to the sum of all anti-CA reactive bands in the respective lane. Filled triangles, irradiated control virus; open circles, inhibitor-treated virus, not irradiated; filled circles, inhibitor-treated virus, irradiated. Curves through data from inhibitor-treated samples represent fits to a single exponential equation. The results are representative of several independent experiments with a slight variation in the half-time of Gag polyprotein processing between 20 and 30 min. CA, capsid; MA, matrix.
HEK293T cells were seeded in six-well plates in high-glucose, phenol red-free DMEM supplemented with penicillin/streptomycin and 10% foetal calf serum. On the following day, cells were transfected with plasmid pCHIV[37] using polyethyleneimine according to standard procedures. A final concentration of 2 μM compound 1 or DMSO (vehicle) was added to the tissue culture medium at the time of transfection. At 44 h post transfection, tissue culture supernatants were harvested, adjusted to pH 6.0 using PR buffer (50 mM MES, pH 6.0, 150 mM NaCl, 2 mM DTT, 1 mM EDTA). Alternatively, supernatants were harvested, filtered, inhibitor was removed by two successive ultracentrifugation steps through a 20% sucrose cushion and the particle pellet was resuspended in PR buffer. […]

[6] = Solubility in culture conditions; type: physicochemical; conditions: 2 μM in 0.5% DMSO
[7] = Cytotoxicity, XTT, MT-4 cells; conditions: human
Method: (§3) Cytotoxicity was determined by incubating two-fold serial dilutions of 1 in triplicate in a 96-well plate
(§4) with 30,000 HEK293T cells/well seeded day ago in Dulbecco’s modified Eagle’s medium with L-
(§5) glutamine supplemented with 10% fetal calf serum (FCS, PAA), 100 U of penicillin/mL, 100 µg of
(§6) streptomycin/mL (Sigma-Aldrich) and with 30,000 MT-4 cells (obtained through the NIH AIDS
(§7) medium with 2 mM L-glutamine (PAA) supplemented with 10% FCS, 10 mM HEPES (Sigma-Aldrich),
(§8) 100 U of penicillin/ml, and 100 µg of streptomycin/mL. After 72 h of incubation at 37 °C, 5 % CO2,
(§9) tetrazolium salt XTT (Sigma-Aldrich) was added to the wells for 4 h and formation of colored
(§10) formazan solution was quantified using Victor X3 plate reader (Perkin Elmer). The percentage of
(§11) cytopathic effect (CPE) was plotted against the log10 1 concentrations and the 50 % cytotoxic
(§12) concentrations (CC50) were calculated using nonlinear regression analysis with GraphPad Prism ver. 6
(§13) 1NL4-3hRluc (HIV expressing human Renilla luciferase12) at multiplicity of infection 0.001 IU/ml for 1 h at […]
(§14) dilutions of 1. After 72 h incubation at 37 °C, 5 % CO2 HIV-1 activity was quantified by measuring
(§15) Renilla luciferase luminescence using the Renilla Luciferase Assay System (Promega) in Victor X3
(§16) plate reader. Percentage of inhibition of luminescence activity was plotted against the log10 1 […]

[8] = Cytotoxicity, XTT, HEK293T cells; conditions: human, HEK293T cells
Method: as §3, §4, §5, §6, §7, §8, §9, §10, §11, §12, §13, §14, §15, §16

HEK293T cells = assay: Cytotoxicity, XTT, HEK293T cells; conditions: 2 μM in 0.5% DMSO; cell line not given
[9] = test system: HIV-1 replication in MT-4 cells; assay: Anti-HIV-1 activity in MT-4 cells (HIV-1 NL4-3 hRluc, Renilla luciferase); conditions: Human immunodeficiency virus 1, MT4, 72 h, read-out: EC50, inhibition of HIV-1 replication
Method: as §3, §4, §5, §6, §7, §8, §9, §10, §11, §12, §13, §14, §15, §16

Compound	Ki ([1]; purified recombinant HIV-1 PR, chromogenic substrate KARVNleNphEaNle-NH2, read-out: Ki)	Ki [1]	difference in Ki values for RTV and compound 1 ([1]; RTV more potent)	loss of potency on irradiation ([1]; irradiation with a 405 nm laser, inhibitor versus photolysis product)	remaining activity at 0.01 µM ([2]; 10 nM compound 1, 405 nm irradiation, read-out: restoration of enzyme activity compared with the uninhibited enzyme reaction)	PR activity after irradiation ([2]; 100 nM compound 1, after 5 min of irradiation at 405 nm)	compound degraded by irradiation (estimate) ([3]; estimated from 75% restored PR activity)	original PR activity recovered ([3]; flow rate 15 μl min^−1, inhibitor concentration 100 nM, 405 nm)	IC50 [4]	Gag processing after irradiation ([5]; culture medium without inhibitor removal, irradiated at 405 nm)	Gag processing without irradiation ([5]; culture medium without inhibitor removal, no irradiation, prolonged incubation)	mature CA (proportion of all anti-CA reactive bands) ([5]; inhibitor wash-out by ultracentrifugation, then irradiated at 405 nm, within 15 min, particles produced with 2 μM)	unprocessed or partially processed Gag products remaining ([5]; inhibitor wash-out, then irradiated, at 6 h of incubation)	half-time of Gag processing after irradiation ([5]; particles produced with 2 μM inhibitor, irradiated at 405 nm in capillary)	solubility [6]	CC50 at 72 h [7]	CC50 at 72 h [8]	cytotoxicity at working concentration (HEK293T cells)	EC50 [9]
CC(C)[C@H](N)C(=O)N[C@@H](Cc1ccccc1)C[C@H](O)[C@H](Cc1ccccc1)NC(=O)OCc1cncs1 [compound 2]	3200 ± 300 nM	–	–	–	–	–	–	–	–	–	–	–	–	–	–	–	–	–	–
CCN(CC)c1ccc2c(COC(=O)N[C@H](C(=O)N[C@@H](Cc3ccccc3)C[C@H](O)[C@H](Cc3ccccc3)NC(=O)OCc3cncs3)C(C)C)cc(=O)oc2c1 [compound 1]	–	0.17 ± 0.02 nM	10 fold	4 orders of magnitude	65%	35%	up to 98%	up to 75%	~500 nM	virtually complete Gag processing	no induction of proteolysis	~ 30%	~ 50%	~ 20 min	soluble	7.3 µM	> 50 µM	noncytotoxic	8.1 nM
